Reference: patent US12565680B2, “Cancer neoantigens and their utilities in cancer vaccines and TCR-based cancer immunotherapy” (THE METHODIST HOSPITAL SYSTEM, priority 2018, dated 2026)

Columns and labels:
Assay type in all cases: cell-based, human
135TIL = assay: Intracellular staining of IFN-γ after neoantigen peptide stimulation, 135TIL; settings: intracellular cytokine staining
Experimental: (§1) T cells were stimulated by various in vitro methods, such as tumor cells, peptides or DNA encoding neoantigens, etc. and induced to release cytokines. Stimulated T cells were resuspended in 100 μl of Cytofix/Cytoperm solution (BD Biosciences) per well for microwell plates (or 250 μl for tubes) and incubated for 20 min at 4° C. for cell fixation. Fixed cells were permeabilized by washing twice in 1× Perm/Wash buffer (BD Biosciences). Then the fixed/permeabilized cells were thoroughly resuspended in 50 μl of 1× Perm/Wash buffer containing 1 μl of phycoerythrin (PE)-conjugated IFN-γ antibody (Thermo Fisher Scientific) and incubate at 4° C. for 30 min in the dark. After that the cells were washed twice with 1× Perm/Wash buffer and ready for flow cytometric analysis.

T-cell clones of 135TIL = assay: IFN-γ ELISA with tumor-reactive T-cell clones of 135TIL; settings: for percentage of CD8^+ tumor-reactive T-cell clones recognizing the neoantigen: 40 clones; for number of CD8^+ tumor-reactive T-cell clones recognizing the neoantigen: of 40 clones
Text: Thus, immunogenic antigens can be generated from various sources or mechanisms [such as alternative ORFs, noncoding regions (3′ and 5′ UTRs, introns, noncoding RNA)]. […] All other tumor-reactive CD4^+ T-cell clones and CD8^+ T-cell clones recognized the mutation-derived neoantigens. […] To identify these two antigens recognized by these two CD4^+ T-cell clones, an Ii-fusion cDNA library derived from 135 mel tumor cells was constructed using experimental procedures. The Ii-fusion cDNA library pools (approximately 100 cDNA clones per pool) were transfected into 293IMDR3/DP4 or 293IMDR4/DP4 cells, followed by co-culturing with CD4^+ T-cell clones (135-1C1 or 135-1E1). After 2×10^5 cDNA clones, positive cDNA library pools that stimulate two T-cell clones, respectively, were identified based on IFN-γ release by ELISA (FIG. 6B). The positive pools were then transformed into Stbl3™ Escherichia coli, and single bacteria colonies were picked for plasmid DNA isolation. The screening assays were repeated in the same APCs transfected with the single cDNA-containing plasmids, and identified three clones that were able to stimulate 135-1C1 T cells, and two clones that reacted with 135-1E1 T cells (FIG. 6C). […] The 135-1E1 T cell-reactive cDNA clones encoded the product translated from an alternative reading frame of CTAG2 (LAGE1b) (FIG. 6C and FIG. 7A). […] LAGE1 is a cancer-testis antigen, with over 80% amino acid sequence identical to NY-ESO-1 protein, which is the most immunogenic tumor antigen identified to date. To define the T cell epitopes, wee generated a series of deletions and truncations of 3′ UTR region of ADIPOR2 gene, and narrowed down T cell epitope to a 26 aa peptide-coding sequence that stimulate 135-1C1 T cell response (FIG. 7D). Using similar approach, T cell epitopes were narrowed down to a 69 aa peptide-coding sequence of the LAGE1b alternative ORF2 for 135-1E1 T-cell recognition (FIG. 7E).
Using systemic and multiple approaches, 8 cancer neoantigens were identified in 135 mel and 7 neoantigens in 136 mel. To understand the potential mechanisms that restrain the number of neoantigens that could induce T cell response, it was asked whether these neoantigens were equally recognized by T cells.
T-cell cloning and expansion were performed. Briefly, T-cell clones from 135TILs were generated by a limited dilution (0.3 cell/well) in 96-well plates. Allogeneic PBMCs from normal donors were irradiated (60 Gy) and then seeded as feeder cells (7×10^4/well) in TCM containing 35 ng/ml OKT3 (anti-hCD3 antibody) (R&D Systems) and 35 ng/ml anti-hCD28 antibody (R&D Systems). On day 1, recombinant IL-2 was added to the final concentration of 300 IU/ml. On day 5, half of the culture medium was replaced with fresh TCM containing recombinant IL-2, and then the medium was changed every other day or when the medium color turned yellow. On day 14, T-cell clones were harvested, counted, tested for tumor reactivity. Tumor reactive T-cell clones were further expanded.
96-well tissue culture plates were coated with phosphate-buffered saline (PBS, GenDEPOT) containing 50 μg/ml poly-L-lysine (Millipore Sigma) at 37° C. 10 min later, the plates were rinsed twice with PBS. Tumor cells or 293-APCs were seeded at 5×10^4/well in the 96-well plate and cultured at 37° C., 5% CO2 for at least 4 h. For plasmid transfection, 250 ng of plasmid DNA were transfected into 293-APCs per well with 0.5 μl of Lipofectamine 2000 (Thermo Fisher Scientific) according to the manufacturer's instructions and incubated at 37° C., in 5% CO2 overnight. For peptide presentation, synthesized peptides (GeneScript) were added to each well at different final concentrations from 10^2 to 10^−4 μM and incubated at 37° C., 5% CO2. The cells transfected with plasmids or pulsed with peptides were washed with TCM twice, and then cocultured with T cells (1×10^5/well). After overnight culture, 50 μl of supernatant was collected for measuring cytokine release with an ELISA assay. […]

[1] = system: CD4^+ T cells isolated from 136TIL; assay: T-cell reactivity assay (IFN-γ ELISA): TMGs/minigenes in 293IMDR1/DP4 and 293IMDR11/DP4 cells; settings: 293IMDR1/DP4 cells
Text: Using several different approaches (293-engineered APCs and B cells, as well as different libraries) and tumor-reactive T cells (TIL lines and clones), 6 MHC-II antigens (4 mutation-derived neoantigens and 2 derived from alternative ORF and 3′ UTR region) were identified and 3 MHC-I neoantigens in 135 mel tumor cells. It appears that the number of neoantigens recognized by T cells is rather limited, even though there are 232 somatic mutations (Table 3). To extend the findings, exome sequencing of genomic DNAs isolated from the second patient tumor (136 mel) and 136TIL cells (as a control) was performed and identified 348 somatic mutations that were unique to 136 tumor cells (FIG. 8A) (Table 4). A library was designed and constructed containing 35 TMGs (10 mutations in each TMG) in pTSX targeting expression vector based on somatic mutations. […] By contrast, no appreciable T cell activity was observed against the corresponding WT counterparts (FIG. 8C). Because ANKIB1 can be presented by both 293IMDR1/DP4 and 293IMDR11/DP4 cells (FIG. 8B), it is likely that ANKIB1 is presented by HLA-DP4 molecules for T cell recognition.
96-well tissue culture plates were coated with phosphate-buffered saline (PBS, GenDEPOT) containing 50 μg/ml poly-L-lysine (Millipore Sigma) at 37° C. 10 min later, the plates were rinsed twice with PBS. Tumor cells or 293-APCs were seeded at 5×10^4/well in the 96-well plate and cultured at 37° C., 5% CO2 for at least 4 h. For plasmid transfection, 250 ng of plasmid DNA were transfected into 293-APCs per well with 0.5 μl of Lipofectamine 2000 (Thermo Fisher Scientific) according to the manufacturer's instructions and incubated at 37° C., in 5% CO2 overnight. For peptide presentation, synthesized peptides (GeneScript) were added to each well at different final concentrations from 10^2 to 10^−4 μM and incubated at 37° C., 5% CO2. The cells transfected with plasmids or pulsed with peptides were washed with TCM twice, and then cocultured with T cells (1×10^5/well). After overnight culture, 50 μl of supernatant was collected for measuring cytokine release with an ELISA assay.
96-well microplate (Greiner Bio-one) was coated with 50 μl of PBS containing anti-human IFN-γ (Thermo Fisher Scientific, primary antibody, 1 μg/ml) per well and incubated at 4° C. overnight. […] The plate was read at OD450 nm. The concentration of IFN-γ was calculated by standard reading.
The screening of antigen-specific T cells against TMGs were performed as described in T-cell reactivity assay above. […] The transfected cells were cocultured with tumor-reactive T cells overnight and the IFN-γ release in the supernatant in each well was determined by ELISA on the second day.

136TIL = assay: Intracellular staining of IFN-γ after neoantigen peptide stimulation, 136TIL; settings: for neoantigen-specific CD4^+ T cells in the total T cell population: fibroblasts loaded with peptide
Text: Among them, MAPK9 and ANKIB1 neoantigen-specific CD4^+ T cells accounted for 14.3% and 5.2% in the total T cell population, which accounted for 58% and 21% in the total tumor-reactive CD4^+ T cell population, respectively (FIG. 11B). By contrast, other neoantigen-specific CD4^+ T cells accounted for only a small percentage of T cells in the total T cell population (FIG. 11A). Since HHAT is only one MHC-I neoantigen, it was shown that HHAT neoantigen-specific CD8^+ T cells accounted for 10.6% in the total T cell population when stimulation with HHAT peptide (FIG. 11A), which accounted for 73% in the total tumor-reactive CD8^+ T cell population (FIG. 11B).
as §1

[2] = system: CD4^+136-C13 and 136-C22 T cell clones; assay: TMG/minigene screening with T cell clones of 136TIL; settings: 293IMDR1/DP4 cells
Experimental: As shown in 135 mel, ADIPOR2 and LAGE1b were identified as tumor antigens recognized by T cell clones that were in relatively low abundance in the bulk TIL population. Thus, T cell clones generated from 136TILs were tested for their ability to recognize the newly identified as well as unknown neoantigens. 293IMDR1/DP4 and 293IMDR11/DP4 cells were transfected with 35 TMGs, respectively, followed by co-culturing with T cells clones for overnight.

GSGEKVAGRVIVKVCEVTRVKAVRI [TXNIP, MHC-I neoantigen of patient #135]
CD8^+ T cells recognizing the neoantigen in the total T cell population (135TIL): 2.95% | percentage of CD8^+ tumor-reactive T-cell clones recognizing the neoantigen (T-cell clones of 135TIL): 20% | number of CD8^+ tumor-reactive T-cell clones recognizing the neoantigen (T-cell clones of 135TIL): 8

KDAARPAYWVPDYEILHCHNCRKEF [ZFYVE1, MHC-II neoantigen of patient #136]
T cell recognition, IFN-γ release by CD4^+ 136TIL [1]: capable of stimulating CD4^+ T cells for IFN-γ release

LLKTRRILKCSYLYGFFLEPKSTKK [ANKIB1, MHC-II neoantigen of patient #136]
share in the total tumor-reactive CD4^+ T cell population (136TIL): 21% | neoantigen-specific CD4^+ T cells in the total T cell population (136TIL): 5.2% | T cell recognition, IFN-γ release by CD4^+ 136TIL [1]: capable of stimulating CD4^+ T cells for IFN-γ release

LLLAGYLAQQYLLLPTPKVIGIDLG [HSPA13, MHC-II neoantigen of patient #136 recognized by clone C22]
recognition by T cell clones 136-C13 (TMG13) and 136-C22 (TMG8) [2]: MHC-II neoantigens

PFYLGHTIKSGDFEYVGMEGGIVLS [C1GALT1C1, MHC-II neoantigen of patient #136 recognized by clone C13]
recognition by T cell clones 136-C13 (TMG13) and 136-C22 (TMG8) [2]: MHC-II neoantigens

RLKASLDRPFTNSESAFYSIVGLSS [RPN2, MHC-I neoantigen of patient #135]
CD8^+ T cells recognizing the neoantigen in the total T cell population (135TIL): 1.54% | percentage of CD8^+ tumor-reactive T-cell clones recognizing the neoantigen (T-cell clones of 135TIL): 12.5% | number of CD8^+ tumor-reactive T-cell clones recognizing the neoantigen (T-cell clones of 135TIL): 5

SMPLWDFQGSTMRTSQYVRLTPDER [LMAN2, MHC-II neoantigen of patient #136]
T cell recognition, IFN-γ release by CD4^+ 136TIL [1]: capable of stimulating CD4^+ T cells for IFN-γ release

YPGIKFEELFPDCIFPSESERDKIK [MAPK9, MHC-II neoantigen of patient #136]
share in the total tumor-reactive CD4^+ T cell population (136TIL): 58% | neoantigen-specific CD4^+ T cells in the total T cell population (136TIL): 14.3% | T cell recognition, IFN-γ release by CD4^+ 136TIL [1]: capable of stimulating CD4^+ T cells for IFN-γ release
